# According to paper PMC5244392, “Interspecies cathelicidin comparison reveals divergence in antimicrobial activity, TLR modulation, chemokine induction and regulation of phagocytosis” (Scientific Reports, 2017):
# Test system: RAW264.7 cells
# Assay: Cytotoxicity (WST-1 mitochondrial activity, PI staining)
# Assay type: cell-based, murine
# Conditions: 24 h, peptide 0.08-20 μM; WST-1 and PI staining
# Experimental: WST-1 reagent was obtained from Roche (Basel, Switzerland). RAW264.7 cells were incubated with cathelicidins for 24 h, after which the supernatant was removed and replaced with 10% WST-1 reagent in culture medium. After 20 minutes, absorbance was measured at 450 nm with a FLUOstar Omega microplate reader (BMG Labtech GmbH, Ortenberg, Germany) and was corrected for absorbance at 630 nm. Non-treated control cells were defined as 100% mitochondrial activity.
# In addition, cells were detached after peptide exposure and stained with propidium iodide (PI) (BD bioscience, San Jose, CA, USA). Percentages of PI positive (i.e. dead) cells were determined with flow cytometry (BD FACSCanto II flow cytometer (BD Biosciences)) and analyzed with FlowJo software (Ashland, OR, USA). […]
# Supplementary Figure 3: Cytotoxicity of cathelicidins on RAW264.7 cells
# (A) RAW264.7 cells were incubated for 24 hours with diﬀerent cathelicidins (0.08 µM, 0.31 µM, 1.25 µM, 5 µM, and 20 µM), after which they were incubated with WST-1 reagent for 20 minutes to measure the mitochondrial activity. No peptide control was set to 100% mitochondrial activity. Dotted line represents 80% mitochondrial activity. Results are presented as average +/- SEM (N = 4).
# (B) RAW264.7 cells were incubated with diﬀerent cathelicidins (0.31 µM, 1.25 µM, 5 µM, and 20 µM). Cells were stained for PI to detect dead cells. […]
substance,measurement,value
"Ac-GRFRRLRKKTRKRLKKIGKVLKWIPPIVGSIPLGCG [PMAP-36, porcine α-helical cathelicidin, N-acetylated, 36 residues, charge +13]","Cytotoxicity to RAW264.7 cells, in words","some cytotoxicity, but only at the highest concentration"
